Data reported in article PMC9807860 (Current Research in Food Science, 2022).
“Also recorded” adds a separate entry of the source. Values belong to the compound of their own block, whether it stands above or below them.

Key:
tyrosinase [1] = target: T1, tyrosinase (Agaricus bisporus, UniProt C7FF04); format: biochemical, mushroom
Target sequence in this assay (C7FF04 2-392): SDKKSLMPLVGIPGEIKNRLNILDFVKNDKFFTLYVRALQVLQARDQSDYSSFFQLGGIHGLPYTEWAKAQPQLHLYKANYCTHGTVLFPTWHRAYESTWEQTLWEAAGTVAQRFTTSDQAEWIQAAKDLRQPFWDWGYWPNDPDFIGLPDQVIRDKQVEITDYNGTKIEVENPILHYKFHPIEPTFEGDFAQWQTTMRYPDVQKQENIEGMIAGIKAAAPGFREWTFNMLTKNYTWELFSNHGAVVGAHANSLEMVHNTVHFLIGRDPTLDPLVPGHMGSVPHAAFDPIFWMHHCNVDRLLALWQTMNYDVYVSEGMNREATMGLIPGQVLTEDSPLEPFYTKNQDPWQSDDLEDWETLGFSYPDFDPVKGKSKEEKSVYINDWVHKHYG

tyrosinase [2] = target: T1, tyrosinase; test: Fluorescence spectrum quenching of tyrosinase; format: binding, mushroom
Target sequence in this assay (C7FF04 2-392): as above

tyrosinase [3] = target: T1, tyrosinase; test: ANS-binding fluorescence spectrum quenching; design: species or system mushroom; conditions: 6j 0–59.41 μM
Target sequence in this assay (C7FF04 1-392): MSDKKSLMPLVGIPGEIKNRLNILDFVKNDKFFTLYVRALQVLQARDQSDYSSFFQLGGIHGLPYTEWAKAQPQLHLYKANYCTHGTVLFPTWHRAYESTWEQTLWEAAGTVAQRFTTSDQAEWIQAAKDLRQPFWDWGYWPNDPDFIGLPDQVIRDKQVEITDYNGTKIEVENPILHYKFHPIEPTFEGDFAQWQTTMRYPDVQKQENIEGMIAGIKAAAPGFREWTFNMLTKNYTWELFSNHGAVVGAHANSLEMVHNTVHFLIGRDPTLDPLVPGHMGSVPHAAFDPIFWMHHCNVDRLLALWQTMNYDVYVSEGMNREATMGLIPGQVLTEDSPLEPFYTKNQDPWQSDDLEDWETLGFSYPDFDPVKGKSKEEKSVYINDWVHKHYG

Cell viability assay = format: cell-based; conditions: human, HEK-293 cells
fresh-cut apple slices = test: Anti-browning experiment with fresh-cut apple slices; conditions: apple slices dipped 5 min, stored at 4 °C; compared with kojic acid
tyrosinase [4] = target: T1, tyrosinase; conditions: Lineweaver-Burk plots; Vmax decreased, Km unchanged
Target sequence in this assay (C7FF04 2-392): as the sequence (C7FF04 2-392) above

[5] = plot of Lg[(F0−F)/F] against Lg[Q]

Structure (SMILES): COc1cc(C=O)cc(OC)c1OCc1cc(=O)c(O)co1 [6c]
Inhibitory activity against tyrosinase (in words) (tyrosinase [1]): relatively lower inhibitory activity

Structure (SMILES): COc1cccc(C=O)c1OCc1cc(=O)c(O)co1 [6g]
Inhibitory activity against tyrosinase (in words) (tyrosinase [1]): relatively lower inhibitory activity

Structure (SMILES): Cc1cc(C=O)cc(C)c1OCc1cc(=O)c(O)co1 [6h]
Inhibitory activity against tyrosinase (in words) (tyrosinase [1]): relatively lower inhibitory activity

The next lines start with results.

Inhibitory activity against tyrosinase (in words) (tyrosinase [1]): relatively lower inhibitory activity
Structure (SMILES): CCOc1cccc(C=O)c1OCc1cc(=O)c(O)co1 [6i]

Anti-tyrosinase activity relative to the positive control kojic acid (tyrosinase [1]; ratio of IC50 values): nine folds more active | Type of quenching (tyrosinase [2]; Stern-Volmer analysis): static quenching | Ksv (Stern-Volmer quenching constant) (tyrosinase [2]; excitation 280 nm, 6j 4.99–24.79 μM): 7040 M⁻¹ | Ka (binding constant) (tyrosinase [2]; [5]): 28900 M⁻¹ | n (binding sites) (tyrosinase [2]; [5]): 1.24 | Kq (biomolecular quenching constant) (tyrosinase [2]; τ0 10^−8 s): 7.04e+11 M⁻¹ s⁻¹ | ANS-binding fluorescence: maximum emission peak wavelength and intensity (tyrosinase [3]): did not present an obvious change | Inhibition type (tyrosinase [4]): noncompetitive inhibitor
Structure (SMILES): O=Cc1ccc(OCc2cc(=O)c(O)co2)cc1F [6j]
viability at 24 h, 1 µM (Cell viability assay): 97.1 ± 2.49% | viability at 24 h, 4 µM (Cell viability assay): 106 ± 8.83% | viability at 24 h, 16 µM (Cell viability assay): 102 ± 10.1% | viability at 24 h, 64 µM (Cell viability assay): 105 ± 7.27% | viability at 24 h, 256 µM (Cell viability assay): 88.6 ± 3.61% | Anti-browning effect (L*, ΔE, visual assessment) (fresh-cut apple slices): could delay the enzymatic browning of fresh-cut apples; also recorded: stronger anti-browning effect than kojic acid

Inhibitory activity against tyrosinase (in words) (tyrosinase [1]): relatively lower inhibitory activity
Structure (SMILES): COc1cc(C=O)cc(Br)c1OCc1cc(=O)c(O)co1 [6k]
